# Assay results from article PMC8116058, “De novo macrocyclic peptides dissect energy coupling of a heterodimeric ABC transporter by multimode allosteric inhibition” (eLife, 2021).
# Legend:
# wild-type TmrAB = assay: Nucleotide occlusion, wild-type TmrAB; type: biochemical, Thermus thermophilus; settings: TmrAB 2 µM; CP^F 4 µM or orthovanadate 1 mM; ATP 1 mM traced with [α32P]-ATP; 5 min 45°C; normalized to vanadate-trapped state
# Experimental: Figure 5. […] (A, B) CP6^F (A) or CP13^F (B, 50 nM each) were incubated with increasing concentrations of detergent-solubilized inward-facing TmrAB (in the absence of Mg-ATP) or outward-facing TmrA^EQB, which was trapped with Mg-ATP (1 mM) for 5 min at 45°C as described ([Hofmann et al., 2019]; [Stefan et al., 2020]). Immediately after, the fluorescence anisotropy was assayed at λex/em = 485/520 nm. The difference in fluorescence polarization was normalized to free and fully bound CP^F. Data were fitted by a one-site binding model. […] TmrAB (2 µM each) were mixed with CP^Fs (4 µM), ATP (1 mM, traced with [α^32P]-ATP), and MgCl2 (5 mM) for 5 min at 4°C or 45°C. Cold ATP (10 mM) was added, and freely exchangeable nucleotides were removed by rapid gel filtration. Occluded nucleotides were analyzed by thin layer chromatography and autoradiography. Representative radiograms for independent triplicates are shown. (D) Stably occluded nucleotides, [α^32P]-ATP and [α^32P]-ADP, were quantified by autoradiography. Data were normalized to the vanadate-trapped state. In (A, B, D), mean values ± SD (n = 3) are shown. Figure 5—source data 1. Source Data for Figure 5. Figure 5—figure supplement 1. […] (A) CP^Fs (50 nM each) were incubated with increasing concentrations of detergent-solubilized IF TmrAB in the inward-facing (IF) conformation (absence of Mg-ATP) or TmrA^EQB populated in the outward-facing (OF) conformation, which was trapped in the OF conformation by Mg-ATP (1 mM) after 5 min incubation at 45°C. The difference in fluorescence polarization was normalized to unbound (0%) and 100% bound CP^F. Data were fitted by a one-site binding model. Fluorescence anisotropy was recorded at λex/em = 485/520 nm. […] TmrA^EQB (2 µM) were incubated in the absence and presence of CP^Fs (4 µM each), ATP (1 mM, traced with [α^32P]-ATP), and MgCl2 (5 mM) for 5 min at 4°C or 45°C. Cold ATP (10 mM) was added, and free nucleotides were removed by rapid gel filtration. Occluded nucleotides were analyzed by thin layer chromatography and autoradiography. Representative radiograms for independent triplicates are shown. […] Figure 5—figure supplement 1—source data 1.
# We also examined the impact of CP^Fs on the IF-to-OF transition of wild-type TmrAB induced by ATP binding through nucleotide occlusion (stable trapping) as the readout. We induced the IF-to-OF switch with radiotraced [α^32P]-ATP for 5 min at 45°C in the presence and absence of CPs and removed unbound nucleotides by rapid gel filtration. Subsequently, the occluded nucleotides were identified and quantified by thin layer chromatography and autoradiography (Figure 5C, D).
# Detergent-solubilized TmrAB (2 µM) were incubated with ATP (1 mM) traced with [α^32P]-ATP (Hartmann Analytic), MgCl2 (5 mM), CP^Fs (4 µM), or orthovanadate (1 mM) for 5 min at 45°C. Cold ATP (10 mM) was added, and unbound nucleotides were removed by rapid gel filtration (Bio-Spin columns P-30, Bio-Rad). ATP (10 mM) was added, and samples were spotted onto polyethyleneimine cellulose plates (Merck Millipore). Thin-layer chromatography was performed using 0.75 M KH2PO4 pH 3.4.
# TmrAB [1] = assay: Competition of CP^F binding by substrate peptides (fluorescence anisotropy); design: species or system Thermus thermophilus; settings: C4^ATTO655 2 µM or R9LQK 200 µM, above their KD values
# Description: (§1) To elucidate the mechanistic basis for the inhibition of ATP hydrolysis and substrate transport, we investigated the effects of CPs on substrate binding. In the first approach, fluorescent CP^Fs were used as reporters in fluorescence polarization. […] In addition, we examined the impact of CP^Bs on ATP binding to TmrAB by scintillation proximity assays (SPA) (Figure 4C). […] Taken together, CPs are high-affinity allosteric inhibitors of TmrAB that leave ATP binding and substrate interaction largely unaffected, while impairing ATP hydrolysis and substrate translocation across the membrane.
# (§2) Figure 4. […] (A) CP^Fs binding TmrAB is not affected by substrate peptide binding. […] For competition, C4^ATTO655 peptide (2 µM) or R9LQK peptide (200 µM) were added. (B) Binding of C4F peptide is not affected by CP^Bs. C4F peptides (50 nM) were mixed with TmrAB (4 µM), and fluorescence anisotropy was monitored as described in (A). For competition, C4^ATTO655 (10 µM) or CP^Bs (6 µM) were added. […] TmrAB (0.2 µM) were immobilized on SPA beads and incubated with ATP (3 μM, traced with ^3H-ATP) in the presence and absence of CP^Bs (1 µM each) for 30 min on ice. ATP binding was monitored by SPA. Background values were determined after releasing TmrAB complexes from the beads by adding imidazole (200 mM). The background signal in the absence of CP^Bs was set to 0 cpm. […] As this is an equilibrium experiment, this can be rationalized by the fact that CP13 stabilizes the ATP-bound OF conformer. Figure 4—source data 1. Source data for Figure 4.
# (§3) To determine equilibrium binding constants, CP^Fs (50 nM) were incubated with increasing concentrations of TmrAB-containing or empty liposomes. To probe the conformational selectivity, CP^Fs (50 nM) were mixed with detergent-solubilized IF TmrAB or OF TmrA^EQB. Before, OF TmrA^EQB was nucleotide-trapped by incubation with ATP (1 mM) and MgCl2 (3 mM) in the absence of CP^Fs for 5 min at 45°C. […] For peptide competition studies, RRYC^fluoresceinKSTEL (C4F, 50 nM) were incubated with detergent-solubilized TmrAB (4 µM), CP^Bs (6 µM), or C4^ATTO655 (10 µM). […] Fluorescence anisotropy was analyzed at λex/em of 485/520 nm using a microplate reader (CLARIOstar, BMG LABTECH). Fluorescence anisotropy was calculated using:(1) r=I||−I⊥/I||+2⋅I⊥ with I||: parallel intensity and I⊥: perpendicular intensity. Binding of CP^Fs were fitted by a one-site binding model (Langmuir 1:1) using:(2) Y=Bmax∙[L]/KD+[L] with Y: binding, Bmax: maximal binding, KD: equilibrium dissociation constant, and [L]: ligand concentration. Data represent mean ± SD from three experiments.
# [2] = target: T1, TmrAB reconstituted in liposomes (Thermus thermophilus, UniProt Q72J04+Q72J05); assay: Filter-based transport assay, CP^Fs tested as substrates; type: biochemical; settings: TmrAB 0.4 µM in liposomes, C4F 3 µM or CP^F 1 µM, 5 min 45°C
# T1 sequence (Q72J05 1-600): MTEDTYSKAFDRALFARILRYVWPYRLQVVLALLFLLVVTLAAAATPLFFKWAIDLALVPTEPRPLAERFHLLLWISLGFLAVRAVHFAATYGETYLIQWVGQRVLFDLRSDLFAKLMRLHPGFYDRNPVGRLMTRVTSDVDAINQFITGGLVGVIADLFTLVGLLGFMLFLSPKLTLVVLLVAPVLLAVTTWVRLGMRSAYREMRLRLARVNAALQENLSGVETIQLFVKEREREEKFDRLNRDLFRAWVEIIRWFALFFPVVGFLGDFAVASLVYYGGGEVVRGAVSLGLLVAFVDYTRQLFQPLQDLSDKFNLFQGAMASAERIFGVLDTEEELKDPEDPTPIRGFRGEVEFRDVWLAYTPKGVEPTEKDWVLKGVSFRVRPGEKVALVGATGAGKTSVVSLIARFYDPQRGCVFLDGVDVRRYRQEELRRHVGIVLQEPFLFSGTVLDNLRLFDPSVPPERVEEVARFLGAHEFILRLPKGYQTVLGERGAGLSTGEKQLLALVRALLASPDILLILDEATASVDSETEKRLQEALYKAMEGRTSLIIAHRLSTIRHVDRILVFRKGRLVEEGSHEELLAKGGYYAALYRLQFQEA
# T1 sequence (Q72J04 1-578): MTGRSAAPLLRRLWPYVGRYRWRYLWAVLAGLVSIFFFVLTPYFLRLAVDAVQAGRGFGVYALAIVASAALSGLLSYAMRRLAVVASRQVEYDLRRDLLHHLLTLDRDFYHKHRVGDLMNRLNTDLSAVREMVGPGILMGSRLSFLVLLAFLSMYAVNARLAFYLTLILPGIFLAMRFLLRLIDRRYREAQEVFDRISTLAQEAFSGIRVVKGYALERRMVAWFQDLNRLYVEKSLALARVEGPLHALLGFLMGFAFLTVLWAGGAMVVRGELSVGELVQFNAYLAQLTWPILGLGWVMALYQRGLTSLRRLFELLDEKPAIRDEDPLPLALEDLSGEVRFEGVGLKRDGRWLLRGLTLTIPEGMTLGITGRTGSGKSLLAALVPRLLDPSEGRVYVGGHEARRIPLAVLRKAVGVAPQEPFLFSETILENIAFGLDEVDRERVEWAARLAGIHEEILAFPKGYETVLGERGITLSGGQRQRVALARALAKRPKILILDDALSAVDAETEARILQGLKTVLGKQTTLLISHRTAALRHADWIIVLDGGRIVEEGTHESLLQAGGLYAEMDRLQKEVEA
# Description: In order to investigate the functional impact of CPs, we examined the effect of the CPs on ATP hydrolysis and substrate transport of TmrAB (Figure 3A). We reconstituted TmrAB in liposomes and first assayed the ATPase activity. […] We next set out to investigate peptide transport by TmrAB using a filter-based transport assay. To investigate whether CPs are recognized as substrates by TmrAB, we added fluorescein-labeled CP^Fs and examined ATP-dependent translocation. In contrast to the linear substrate peptide C4F, none of the CP^Fs were transported by TmrAB (Figure 3C). Next, we examined ATP-dependent transport of C4F peptides in the presence and absence of the different CPs.
# Figure 3. CP^Fs are potent inhibitors of ATP turnover and substrate transport. (A) Experimental scheme of ATP hydrolysis and peptide transport by TmrAB. (B) CP^Fs inhibit ATP hydrolysis. TmrAB in liposomes (100 nM) was incubated with ATP (2 mM, traced with [γ^32P]-ATP), and MgCl2 (5 mM) in the presence and absence of CP^Fs (1 µM) for 10 min at 45°C. Autohydrolysis was determined in the absence of TmrAB, and background turnover was conducted in the presence of EDTA (10 mM). Release of [γ^32P] was quantified by thin layer chromatography. (C) CP^Fs are not transported by TmrAB. TmrAB (0.4 µM) reconstituted in liposomes was incubated with C4F peptide (3 µM) or CP^Fs (1 µM) in the presence of ATP/ADP (3 mM) and MgCl2 (5 mM) for 5 min at 45°C. Since CP^Fs were dissolved in maximal 0.5% (v/v) of DMSO, C4F plus 0.5% DMSO served as control. Proteoliposomes were washed on filter plates, and transported peptides were quantified at λex/em = 485/520 nm. (D) Inhibition of substrate translocation. TmrAB in liposomes (0.4 µM) were incubated with C4F peptide (3 µM), ATP/ADP (3 mM), and MgCl2 (5 mM) in the presence and absence of CP^Fs (1 µM) for 15 min at 45°C. Transported peptides were quantified as described in (C). In (B–C), mean values ± SD (n = 3) are shown. Figure 3—source data 1. Source data for Figure 3.
# TmrAB in liposomes (0.4 µM) were incubated with ATP/ADP (3 mM), MgCl2 (5 mM), C4F peptide (3 µM), and CP^Fs (1 µM) for 15 min at 45°C. […] Proteoliposomes were solubilized by adding SDS (1% [v/v]) in transport buffer for 10 min at 20°C. Transported peptides were quantified at λex/em = 485/520 nm using a microplate reader (CLARIOstar, BMG LABTECH).
# TmrAB [3] = assay: Competition of C4F peptide binding by CP^Bs (fluorescence anisotropy); design: species or system Thermus thermophilus
# Description: as §1, §2, §3
molecule,measurement,setting,value
"[O]=[V]([O-])([O-])[O-] [Vanadate, orthovanadate, reference compound]","Occluded nucleotides, ADP",wild-type TmrAB,56.67%
same,"Occluded nucleotides, ATP",wild-type TmrAB,62.96%
"RRYQKSTEL [R9LQK, reference compound]",Effect of transported peptides on CP^F binding to TmrAB,TmrAB [1],did not affect binding of CP^Fs to TmrAB
"RRYC^fluoresceinKSTEL [C4F, reference compound]",Transported peptide,[2]; ADP 3 mM (background),0.00 µmol·g/min
same,Transported peptide,[2]; ATP 3 mM,1.64 µmol·g/min
same,"Bound C4F peptide, fluorescence anisotropy",TmrAB [3]; listed as -: baseline of C4F 50 nM,0.023
same,"Bound C4F peptide, fluorescence anisotropy","TmrAB [3]; listed as C4F: C4F 50 nM + TmrAB 4 µM, no competitor",0.129
"RRYC^ATTO655KSTEL [C4^ATTO655, reference compound]",Effect of transported peptides on CP^F binding to TmrAB,TmrAB [1],did not affect binding of CP^Fs to TmrAB
same,"Bound C4F peptide, fluorescence anisotropy",TmrAB [3]; C4F 50 nM + TmrAB 4 µM + competitor (CP^B 6 µM or C4^ATTO655 10 µM),0.045
same,Competition of C4F peptide binding,TmrAB [3]; CP^B 6 µM or C4^ATTO655 10 µM as competitor,interfered with C4F peptide binding
